The values below come from patent publication US20230056335A1, “TOPICAL FORMULATION CONTAINING RAPAMYCIN” (NOBELPHARMA CO., LTD., priority 2020, published 2023).

Data set [1] can be described thus: Solubility of sirolimus in each single solvent (visual observation). It counts as physicochemical. To be noted: sirolimus:solvent 1:50 (weight ratio). How it is done: Sirolimus was mixed into each solvent shown in Table 1 so that sirolimus:solvent was a ratio of 1:50 (weight ratio), heating and ultrasonic irradiation were performed thereon in a water bath of about 50° C., and solubility was confirmed by visual observation.

The nature of data set [2]: Effects of mixing amount of BHT on stability of sirolimus, HPLC quantification. As to conditions: BHT mixed at a concentration of 1% or higher; 40° C. and 50° C. for 2 weeks. It is filed as physicochemical. How it is done: Quantification of sirolimus was performed by conducting an HPLC test under the following conditions and comparing the area of a sirolimus peak in a test substance and the area of a sirolimus peak in a sirolimus standard.
Detector: ultraviolet absorption photometer (detection wavelength: 278 nm)
Column: stainless steel tube with internal diameter of 4.6 mm and length of 250 mm filled with octadecylsilyl-silica gel for chromatography
Column temperature: constant temperature of about 40° C.
Mobile phase: acetonitrile/0.02 mol/L ammonium acetate buffer (pH 6.0)=13/7
Solutions were prepared by mixing various concentrations of BHT into the ethanol solution of sirolimus, and the solutions were stored at 40° C. and 50° C. for 2 weeks. Quantification of sirolimus was performed on samples after the storage by the same method as that in Reference Example 2 to calculate residual ratios.

Another data set relates to EFT-400 kit skin model. Kind of data set: Penetration test for ointment into skin model. It is filed as in vitro ADME. How it is done: Penetration of an ointment into a skin model was tested using the sirolimus ointment prepared in Example 4 as a test substance and an EFT-400 kit manufactured by MetTec Corporation as the skin model.
Skin model cells were transferred to a 6-well plate into which an EFT-400 assay medium was dispensed, and the cells were incubated overnight (for 16 to 18 hours) in a carbon dioxide incubator (37° C., 5% CO2, under a humidified condition).
About 50 mg of the test substance was applied onto the center of the cultured skin cells and evenly spread on the cells. These cells were incubated for 24 hours in a carbon dioxide incubator (37° C., 5% CO2, under a humidified condition). […]
Then, the sample solution was diluted 10-fold with the blank matrix, and 20 μL of the diluted sample solution was collected in a PP tube. 20 μL of acetonitrile, 20 μL of the internal standard solution, and 50 μL methanol were added to and mixed with the diluted sample solution, and the mixture was subjected to LC/MS/MS under the following conditions to quantify a sirolimus concentration in the measurement sample. The mass of sirolimus that transferred to the dermic layer was calculated from the obtained value of the sirolimus concentration and the mass of the dermic layer used in the preparation of the sample solution. […]

As for `CO[C@H]1C[C@@H]2CC[C@@H](C)[C@@](O)(O2)C(=O)C(=O)N2CCCC[C@H]2C(=O)O[C@H]([C@H](C)C[C@@H]2CC[C@@H](O)[C@H](OC)C2)CC(=O)[C@H](C)/C=C(\C)[C@@H](O)[C@@H](OC)C(=O)[C@H](C)C[C@H](C)/C=C/C=C/C=C/1C` [sirolimus], the “Solubility in a single solvent” value in data set [1] (each solvent of Table 1) was “did not dissolve”. The Solubility entry in data set [1] (solvent 1,3 Butylene glycol, about 50° C.) was “Insoluble (cloudy liquid)”; in data set [1] (solvent Diethyl sebacate, about 50° C.), “Insoluble (cloudy liquid)”; in data set [1] (solvent Diisopropyl sebacate, about 50° C.), “Insoluble (cloudy liquid)”; in data set [1] (solvent Ethylene glycol salicylate, about 50° C.), “Insoluble (cloudy liquid)”; in data set [1] (solvent Medium-chain fatty acid triglyceride, heating and ultrasonic irradiation about 50° C.) it was “Insoluble (cloudy liquid)”; in data set [1] (solvent Polyethylene glycol (Macrogol 400), about 50° C.) it was “Insoluble (cloudy liquid)”. For the same compound, the Solubility entry is reported as “Insoluble (cloudy liquid)” in data set [1] (solvent Propylene glycol, about 50° C.); “Insoluble (cloudy liquid)” in data set [1] (solvent Squalane, about 50° C.); “Insoluble (cloudy liquid)” in data set [1] (solvent Triacetin, about 50° C.). Moreover, the Stability of sirolimus entry in data set [2] is reported as “stability of sirolimus was maintained”. The “Rate of sirolimus transferred to the dermic layer” value in the data set on EFT-400 kit skin model (sirolimus ointment prepared in Example 4, about 50 mg applied, 24 hours incubation, LC/MS/MS) is listed as 1.402 % with respect to the indicated dose. Besides, the Skin penetrating properties entry in the data set with EFT-400 kit skin model (sirolimus ointment prepared in Example 4, EFT-400 skin model) is “sufficiently maintained”.
